Experimental data published in ChEMBL document CHEMBL4304820, “Design, synthesis and biological evaluation of novel serotonin and dopamine receptor ligands being 6-bromohexyl saccharine derivatives” (Bioorg Med Chem Lett, 2019).

How the values were obtained:
[1] = target: T1, 5-hydroxytryptamine receptor 1A (Rattus norvegicus, UniProt P19327); test: Displacement of [3H]-8-OH-DPAT from 5HT1A receptor in Wistar rat brain cerebral cortex incubated for 30 mins by liquid scintillation spectrometry; type: tissue-based
T1 sequence (P19327 whole entry): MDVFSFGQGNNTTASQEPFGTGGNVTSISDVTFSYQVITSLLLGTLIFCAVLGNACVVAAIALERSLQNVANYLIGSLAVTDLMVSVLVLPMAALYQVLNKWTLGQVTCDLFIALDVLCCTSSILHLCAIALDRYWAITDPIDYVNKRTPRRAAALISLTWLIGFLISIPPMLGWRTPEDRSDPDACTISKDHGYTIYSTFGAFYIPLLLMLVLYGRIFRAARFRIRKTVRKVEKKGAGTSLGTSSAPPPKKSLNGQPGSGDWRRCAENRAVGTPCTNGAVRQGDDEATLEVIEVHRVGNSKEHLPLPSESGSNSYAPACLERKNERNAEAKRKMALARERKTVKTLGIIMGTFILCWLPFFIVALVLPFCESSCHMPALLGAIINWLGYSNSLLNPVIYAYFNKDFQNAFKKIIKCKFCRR

[2] = target: 5-hydroxytryptamine receptor 2A (Rattus norvegicus, UniProt P14842); test: Displacement of [3H]ketanserin from 5-HT2A receptor in Wistar rat brain frontal cortex incubated for 30 mins by radioligand binding assay; type: tissue-based
5-hydroxytryptamine receptor 2A (Rattus norvegicus, UniProt P14842), sequence (P14842 whole entry): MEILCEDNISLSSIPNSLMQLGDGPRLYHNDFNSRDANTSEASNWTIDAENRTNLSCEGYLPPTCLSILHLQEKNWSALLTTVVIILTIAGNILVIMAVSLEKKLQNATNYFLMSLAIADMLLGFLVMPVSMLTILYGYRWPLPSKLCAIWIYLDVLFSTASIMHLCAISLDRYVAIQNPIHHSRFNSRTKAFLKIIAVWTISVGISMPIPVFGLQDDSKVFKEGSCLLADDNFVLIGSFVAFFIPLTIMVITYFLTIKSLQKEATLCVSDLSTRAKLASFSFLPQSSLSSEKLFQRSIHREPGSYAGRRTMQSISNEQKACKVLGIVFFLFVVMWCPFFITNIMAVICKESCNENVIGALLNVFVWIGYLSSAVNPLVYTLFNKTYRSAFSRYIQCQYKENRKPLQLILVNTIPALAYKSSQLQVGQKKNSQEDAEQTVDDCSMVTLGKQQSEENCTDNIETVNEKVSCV

[3] = target: T2, 5-hydroxytryptamine receptor 1A (Homo sapiens, UniProt P08908); test: Displacement of [3H]-8-OH-DPAT from full length human cloned 5HT1A receptor expressed in HEK293 cells incubated for 1 hr by radioligand displacement assay; type: cell-based
T2 sequence (P08908 whole entry): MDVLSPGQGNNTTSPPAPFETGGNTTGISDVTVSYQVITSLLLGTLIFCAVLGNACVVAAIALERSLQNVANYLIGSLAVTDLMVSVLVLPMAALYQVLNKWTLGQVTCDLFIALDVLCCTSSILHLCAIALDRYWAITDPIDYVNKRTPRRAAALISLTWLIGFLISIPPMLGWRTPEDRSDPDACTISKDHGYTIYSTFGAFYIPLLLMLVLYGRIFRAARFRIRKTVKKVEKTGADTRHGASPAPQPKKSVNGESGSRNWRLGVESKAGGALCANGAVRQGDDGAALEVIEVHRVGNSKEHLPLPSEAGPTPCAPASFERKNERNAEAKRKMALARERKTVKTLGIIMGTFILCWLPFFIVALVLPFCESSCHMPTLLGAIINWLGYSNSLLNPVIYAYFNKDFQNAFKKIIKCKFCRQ

[4] = target: T3, D(2) dopamine receptor (Homo sapiens, UniProt P14416); test: Displacement of [3H]raclopride from full length human cloned D2L receptor expressed in HEK293 cells incubated for 1 hr by radioligand displacement assay; type: cell-based
T3 sequence (P14416 whole entry): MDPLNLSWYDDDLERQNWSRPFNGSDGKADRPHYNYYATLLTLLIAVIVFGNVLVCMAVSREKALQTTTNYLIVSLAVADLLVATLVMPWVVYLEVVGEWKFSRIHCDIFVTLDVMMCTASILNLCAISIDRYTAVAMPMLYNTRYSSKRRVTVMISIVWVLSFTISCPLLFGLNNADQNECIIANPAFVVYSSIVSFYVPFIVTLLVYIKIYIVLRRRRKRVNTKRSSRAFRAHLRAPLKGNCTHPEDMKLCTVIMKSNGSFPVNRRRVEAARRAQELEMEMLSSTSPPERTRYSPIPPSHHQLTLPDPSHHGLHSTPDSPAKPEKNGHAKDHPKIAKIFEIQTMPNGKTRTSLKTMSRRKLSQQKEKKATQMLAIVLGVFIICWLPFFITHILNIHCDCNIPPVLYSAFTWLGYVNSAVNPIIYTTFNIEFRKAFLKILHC

[5] = target: 5-hydroxytryptamine receptor 2A (Homo sapiens, UniProt P28223); test: Displacement of [3H]ketanserin from full length human cloned 5HT2A receptor expressed in CHO-K1 cells incubated for 1 hr by radioligand displacement assay; type: cell-based
5-hydroxytryptamine receptor 2A (Homo sapiens, UniProt P28223), sequence (P28223 whole entry): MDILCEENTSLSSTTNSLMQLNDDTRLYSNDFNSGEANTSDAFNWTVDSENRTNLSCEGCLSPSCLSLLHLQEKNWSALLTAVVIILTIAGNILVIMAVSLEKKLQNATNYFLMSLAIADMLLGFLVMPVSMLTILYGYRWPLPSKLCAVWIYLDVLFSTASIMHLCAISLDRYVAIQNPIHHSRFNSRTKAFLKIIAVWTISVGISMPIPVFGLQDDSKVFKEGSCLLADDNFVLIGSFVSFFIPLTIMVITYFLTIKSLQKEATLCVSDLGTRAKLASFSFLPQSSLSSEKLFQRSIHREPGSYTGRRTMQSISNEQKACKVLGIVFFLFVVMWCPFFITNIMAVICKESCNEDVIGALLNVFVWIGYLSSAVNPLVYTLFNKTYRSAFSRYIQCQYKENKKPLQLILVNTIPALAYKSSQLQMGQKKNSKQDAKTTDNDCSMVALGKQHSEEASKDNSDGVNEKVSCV

[6] = target: 5-hydroxytryptamine receptor 6 (Homo sapiens, UniProt P50406); test: Displacement of [3H]LSD from full length human cloned 5HT6R expressed in HEK293 cells incubated for 1 hr by radioligand displacement assay; type: cell-based
5-hydroxytryptamine receptor 6, sequence (P50406 whole entry): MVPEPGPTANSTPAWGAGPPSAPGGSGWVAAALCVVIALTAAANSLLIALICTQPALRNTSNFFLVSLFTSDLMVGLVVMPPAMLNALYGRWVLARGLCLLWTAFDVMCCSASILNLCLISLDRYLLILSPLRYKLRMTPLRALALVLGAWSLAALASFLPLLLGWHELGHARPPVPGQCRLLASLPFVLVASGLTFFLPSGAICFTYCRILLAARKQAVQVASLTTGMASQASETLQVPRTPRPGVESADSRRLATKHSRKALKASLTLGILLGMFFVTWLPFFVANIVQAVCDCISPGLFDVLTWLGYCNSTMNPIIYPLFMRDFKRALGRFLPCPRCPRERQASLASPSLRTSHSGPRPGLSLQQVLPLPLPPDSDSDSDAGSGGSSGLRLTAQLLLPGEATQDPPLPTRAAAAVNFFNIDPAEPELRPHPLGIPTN

[7] = target: 5-hydroxytryptamine receptor 7 (Homo sapiens, UniProt P34969); test: Displacement of [3H]5-CT from full length human cloned 5-HT7bR expressed in HEK293 cells incubated for 1 hr by radioligand displacement assay; type: cell-based
5-hydroxytryptamine receptor 7, sequence (P34969 whole entry): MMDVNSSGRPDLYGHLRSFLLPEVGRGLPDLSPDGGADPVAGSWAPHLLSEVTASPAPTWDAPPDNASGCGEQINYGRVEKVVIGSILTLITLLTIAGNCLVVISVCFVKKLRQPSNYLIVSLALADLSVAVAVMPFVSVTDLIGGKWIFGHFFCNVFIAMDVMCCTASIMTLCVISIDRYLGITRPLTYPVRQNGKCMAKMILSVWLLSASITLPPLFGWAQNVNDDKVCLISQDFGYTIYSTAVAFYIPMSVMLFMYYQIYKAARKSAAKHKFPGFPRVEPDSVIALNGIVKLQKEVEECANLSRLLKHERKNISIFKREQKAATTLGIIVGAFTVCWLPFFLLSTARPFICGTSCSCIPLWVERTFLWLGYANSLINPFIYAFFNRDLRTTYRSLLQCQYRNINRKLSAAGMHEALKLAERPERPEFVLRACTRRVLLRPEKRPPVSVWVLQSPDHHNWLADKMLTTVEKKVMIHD

[8] = target: T3, D(2) dopamine receptor; test: Antagonist activity at human D2 receptor expressed in HEK293 cells assessed as cAMP accumulation incubated for 30 mins in presence of forskolin/dopamine by TR-FRET assay; type: functional, cell-based
[9] = target: T4, 5-hydroxytryptamine receptor 1A (Homo sapiens) (UniProt P08908); test: Antagonist activity at human 5 HT1A receptor expressed in HEK293 cells assessed as cAMP accumulation incubated for 30 mins in presence of forskolin/8-OH-DPAT by TR-FRET assay; type: functional, cell-based
T4 sequence (whole entry): T2 sequence (P08908 whole entry)

[10] = target: T1, 5-hydroxytryptamine receptor 1A; test: Displacement of [3H]-8-OH-DPAT from 5HT1A receptor in rat brain hippocampus incubated for 60 mins by radioligand binding assay
[11] = target: D(2) dopamine receptor (Rattus norvegicus, UniProt P61169); test: Displacement of [3H]raclopride from D2 receptor in rat brain striatum incubated for 60 mins by radioligand binding assay; type: tissue-based
D(2) dopamine receptor (Rattus norvegicus, UniProt P61169), sequence (P61169 whole entry): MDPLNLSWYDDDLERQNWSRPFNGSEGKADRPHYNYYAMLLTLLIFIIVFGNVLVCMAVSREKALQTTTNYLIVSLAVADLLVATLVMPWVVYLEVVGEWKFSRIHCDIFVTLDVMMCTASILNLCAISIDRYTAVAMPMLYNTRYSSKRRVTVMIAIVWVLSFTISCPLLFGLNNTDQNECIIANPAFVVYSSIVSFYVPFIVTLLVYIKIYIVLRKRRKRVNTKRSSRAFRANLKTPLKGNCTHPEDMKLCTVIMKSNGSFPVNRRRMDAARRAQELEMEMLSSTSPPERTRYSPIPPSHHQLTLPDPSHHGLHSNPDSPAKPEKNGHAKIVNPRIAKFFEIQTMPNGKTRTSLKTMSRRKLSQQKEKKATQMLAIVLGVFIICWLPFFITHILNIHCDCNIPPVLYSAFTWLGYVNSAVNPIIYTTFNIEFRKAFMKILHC

[12] = target: T3, D(2) dopamine receptor; test: Displacement of [3H]raclopride from human cloned D2 receptor expressed in HEK293 cells by radioligand binding assay; type: cell-based
[13] = target: T2, 5-hydroxytryptamine receptor 1A; test: Agonist activity at human 5 HT1A receptor expressed in HEK293 cells assessed as inhibition of forskolin-stimulated cAMP accumulation incubated for 30 mins by TR-FRET assay; type: functional, cell-based

Row | Ki [3] [nM] | Ki [4] [nM] | Ki [5] [nM] | Ki [6] [nM] | Ki [7] [nM] | Structure (SMILES) | further results
1 |  |  |  |  |  | O=C1c2ccccc2S(=O)(=O)N1CCCCN1CCN(c2cccc(C(F)(F)F)c2)CC1 | Ki [1]: 100 nM; Ki [2]: 2250 nM
2 | 21 | 39 | 361 | 372 | 233 | O=C1c2ccccc2S(=O)(=O)N1CCCCCCN1CCN(c2cccc(Cl)c2)CC1 | 
3 | 4 | 15 | 205 | 1720 | 21 | O=C1c2ccccc2S(=O)(=O)N1CCCCCCN1CCN(c2cccc3cccnc23)CC1 | Kb [8]: 10 nM; Kb [9]: 7 nM
4 | 26 | 45 | 266 | 459 | 120 | O=C1c2ccccc2S(=O)(=O)N1CCCCCCN1CCN(c2ccccc2Cl)CC1 | 
5 |  |  |  |  |  | O=c1ccc2ccc(OCCCCN3CCN(c4cccc5sccc45)CC3)cc2[nH]1 [BREXPIPRAZOLE] | Ki [10]: 0.09 nM; Ki [11]: 3.8 nM
6 | 84 | 28 |  |  |  | O=C1c2ccccc2S(=O)(=O)N1CCCCCCN1CCN(c2ccc(Cl)cc2)CC1 | 
7 | 54 | 105 | 283 | 132 | 258 | O=C1c2ccccc2S(=O)(=O)N1CCCCCCN1CCN(c2ccc(Cl)c(Cl)c2)CC1 | 
8 | 9 | 8 | 91 | 157 | 20 | O=C1c2ccccc2S(=O)(=O)N1CCCCCCN1CCN(c2cccc3ccccc23)CC1 | Kb [8]: 14 nM; Kb [9]: 14 nM
9 | 23 | 9 | 23 | 58 | 45 | O=C1c2ccccc2S(=O)(=O)N1CCCCCCN1CCN(c2nsc3ccccc23)CC1 | 
10 | 12 | 24 | 307 | 1620 | 322 | O=C1c2ccccc2S(=O)(=O)N1CCCCCCN1CCN(c2ccccc2F)CC1 | 
11 |  |  |  |  |  | O=C1c2ccccc2S(=O)(=O)N1CCCCN1CCN(c2ncccn2)CC1 [IPSAPIRONE] | Ki [12]: 1220 nM
12 | 20 | 48 | 321 | 971 | 192 | O=C1c2ccccc2S(=O)(=O)N1CCCCCCN1CCN(c2ccccc2)CC1 | 
13 | 24 | 51 | 183 | 104 | 35 | O=C1c2ccccc2S(=O)(=O)N1CCCCCCN1CCN(c2ncccn2)CC1 | 
14 | 13 | 239 | 1290 | 2350 | 552 | O=C1c2ccccc2S(=O)(=O)N1CCCCCCN1CCN(c2ccccn2)CC1 | 
15 | 91 | 61 |  |  |  | COc1ccccc1N1CCN(CCCCCCN2C(=O)c3ccccc3S2(=O)=O)CC1 | 
16 | 19 | 113 | 342 | 921 | 305 | COc1cccc(N2CCN(CCCCCCN3C(=O)c4ccccc4S3(=O)=O)CC2)c1 | 
17 | 58 | 132 | 209 | 920 | 119 | O=C1c2ccccc2S(=O)(=O)N1CCCCCCN1CCN(c2cccc(Cl)c2Cl)CC1 | 
18 | 327 | 950 |  |  |  | COc1ccc(N2CCN(CCCCCCN3C(=O)c4ccccc4S3(=O)=O)CC2)cc1 | 
19 | 156 | 27 | 922 | 1270 | 195 | O=C1c2ccccc2S(=O)(=O)N1CCCCCCN1CCN(c2ccccc2C(F)(F)F)CC1 | 
20 | 25 | 7 | 167 | 52 | 58 | O=C1c2ccccc2S(=O)(=O)N1CCCCCCN1CCN(c2cccc(C(F)(F)F)c2)CC1 | Kb [8]: 319 nM; EC50 [13]: 56 nM
